Experimental data: paper PMC3177990 (Biochemistry, 2011)

Biological target: human secretin receptor (Homo sapiens, UniProt P47872)
Experiment: cAMP responses in CHO-SecR cells
Type: cell-based
Conditions: Figure 4, responses not significantly different from 1

Sequence of human secretin receptor (P47872 23-440): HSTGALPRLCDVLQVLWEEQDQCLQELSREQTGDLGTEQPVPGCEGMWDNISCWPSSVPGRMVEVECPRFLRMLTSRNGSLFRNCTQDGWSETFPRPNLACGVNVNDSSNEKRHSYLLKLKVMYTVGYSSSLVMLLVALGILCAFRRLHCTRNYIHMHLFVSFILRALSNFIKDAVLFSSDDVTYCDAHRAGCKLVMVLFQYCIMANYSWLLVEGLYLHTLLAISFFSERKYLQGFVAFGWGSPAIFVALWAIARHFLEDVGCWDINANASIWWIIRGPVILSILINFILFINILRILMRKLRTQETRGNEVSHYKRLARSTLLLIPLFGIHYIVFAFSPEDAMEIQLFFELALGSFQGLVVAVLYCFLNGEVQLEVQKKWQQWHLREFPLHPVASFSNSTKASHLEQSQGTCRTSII

agonist character, cAMP responses compared with [Y^10]sec(1-27) (1) | Substance
full agonists | cyclic [Glu^16,Lys^20]human secretin(1-27) [compound 15]
full agonists | cyclic [Glu^16,Lys^20][Tyr^10]human secretin(1-27) [compound 14]
